Results on three compounds are retold here after patent publication US9526249B2, “Biocidal composition of 2,6-dimethyl-m-dioxane-4-ol acetate and methods of use” (priority 2008, dated 2016).

Each structure is given as a SMILES string.

Assay type in all cases: cell-based
Test [1] concerns Pseudomonas aeruginosa (ATCC#15442), Pseudomonas aeruginosa (ATCC#10145), Enterobacter aerogenes (ATCC#13048), Escherichia coli (ATCC#11229), Klebsiella …. The test can be described thus: Preservative efficacy (repeated bacterial challenge) of dimethoxane/BIT in commercial water-based latex paint (pH 7.4), 96-deep well block. On the procedure:
(§1) In the following examples, tests are conducted in a 96-deep well block format using a total sample volume of 600 μl for all evaluations. In these samples, no more than 10% of the total volume consists of the biocide and organism solution and all non-matrix additions are normalized for all samples. Each experimental 96-well block contains biocide-treated samples and control samples which lack biocide.
(§2) Twenty-four hour tryptic soy broth cultures are combined in equal parts for formulation inoculation at a final concentration of 5×10^6 CFU/ml. Organisms are added to each sample of the 96-well block and mixed until homogenous. Additionally, bacterial challenges of the industrial or household product occur on days 2, 7, and 14 of the 28-day test period.
(§3) Sample aliquots are removed, at predetermined time points, for the enumeration of surviving microorganisms. Numerical values in the data tables listed below represent the log10 viable microorganisms recovered from individual samples at specific time points and biocide concentrations post microorganism addition. Biocide concentrations resulting in a≧4 log10 kill of microorganisms, as compared to the preservative-free control, were deemed a significant reduction of viable organisms and were subsequently used for calculating synergy index values.
(§4) The reported synergy indexes are measured and calculated using the formula described below. In this approach, a synergy index of 1 indicates additivity. If the index is less than 1, synergy has occurred, while a synergy index greater than 1 indicates antagonism. Synergy index=CA/Ca+CB/Cb Ca=minimal concentration of antimicrobial A, alone, producing a 4 log10 microbial kill Cb=minimal concentration of antimicrobial B, alone, producing a 4 log10 microbial kill
(§5) CA and CB=the concentrations of antimicrobials A and B, in combination, producing a 4 log10 microbial kill.
The antimicrobial profiles of dimethoxane, BIT, and combinations of dimethoxane/BIT are evaluated in a commercial (interior eggshell) water-based latex paint formulation (pH 7.4). The paint formulation is determined to be free of microbial contamination prior to initiation of preservative efficacy evaluations.
(§6) Organisms for this example: Pseudomonas aeruginosa (ATCC#15442), Pseudomonas aeruginosa (ATCC#10145), Enterobacter aerogenes (ATCC#13048), Escherichia coli (ATCC#11229), Klebsiella pneumoniae (ATCC#8308), Staphylococcus aureus (ATCC#6538), Salmonella choleraesuis (ATCC#10708).

Test [2] shares this test system. The test can be described thus: Preservative efficacy (repeated bacterial challenge) of dimethoxane/BIT in commercial liquid laundry detergent (pH 8.0), 96-deep well block. On the procedure: as §1, §2, §3, §4, §5
The antimicrobial profiles dimethoxane, 1,2-benzisothiazol-3-one (BIT), and combinations of dimethoxane/BIT are evaluated in a commercial liquid laundry detergent formulation (pH 8.0).
as §6

Test [3] shares this test system. The test can be described thus: Preservative efficacy (repeated bacterial challenge) of dimethoxane/CMIT/MIT in commercial water-based latex paint (pH 7.4), 96-deep well block. The method, then: as §1, §2, §3, §4, §5
The antimicrobial profiles of 2,6-dimethyl-m-dioxan-4-ol acetate (dimethoxane), 5-chloro-2-methyl-4-isothiazolin-3-one/2-methyl-4-isothiazolin-3-one (CMIT/MIT) and combinations of dimethoxane/CMIT/MIT are evaluated in a commercial (interior eggshell) water-based latex paint formulation (pH 7.4). The paint formulation is determined to be free of microbial contamination prior to initiation of preservative efficacy evaluations.
as §6

The subject of test [4] is Pseudomonas aeruginosa (ATCC#15442), Pseudomonas aeruginosa (ATCC#10145), Enterobacter gergoviae (ATCC#33028), Escherichia coli (ATCC#11229), Pseudomonas …. Put plainly: Preservative efficacy (repeated bacterial challenge) of dimethoxane/MIT in commercial liquid laundry detergent (pH 8.0), 96-deep well block. The following applies: day 20. The method, then: as §1, §2, §3, §4, §5
The antimicrobial profiles of 2,6-dimethyl-m-dioxan-4-ol acetate (dimethoxane), 2-methyl-3-isothiazolinone (MIT), and combinations of dimethoxane/MIT are evaluated in a commercial liquid laundry detergent formulation (pH 8.0). The detergent formulation is determined to be free of microbial contamination prior to initiation of preservative efficacy evaluations.
Organisms for this example: Pseudomonas aeruginosa (ATCC#15442), Pseudomonas aeruginosa (ATCC#10145), Enterobacter gergoviae (ATCC#33028), Escherichia coli (ATCC#11229), Pseudomonas putida (ATCC#49128), Staphylococcus aureus (ATCC#6538).

Test [5] has as its system wild strain of green algae isolated from contaminated PVA latex. The test can be described thus: Challenge testing of PVA latex against wild strain of green algae. The following applies: Dimethoxane 2000 ppm alone (CMIT/MIT 0 ppm), three weeks. The method, then: Procedure. In this example, a viscous PVA (poly vinyl acetate) latex diluted with water at 5 to 1 ratio is used for algal efficacy testing. Each sample is mixed well by hand and vortex for 2 minutes. 5mL portions of each sample are then placed in a six-well plate and inoculated with 500 μL of 1×10^6 cfu/mL wild strain of green algae isolated from contaminated PVA latex.
The plates are incubated at room temp (25° C.-26° C.) under cyclic exposure to light (OTT-Lite model #OTL4012P, 40 Watt, 26 KLumen) and dark phases, for a period of three weeks.

Setting [6] is: day 20, ppm active, following four bacterial challenges.

As to `O=c1[nH]sc2ccccc12` [BIT, 1,2-benzisothiazol-3-one], the “log10 viable microorganisms (score)” value in test [1] (BIT alone 29 ppm, day 15) worked out at 8 log10; in test [1] (BIT alone 44 ppm, day 15), 7 log10; in test [1] (BIT alone 66 ppm, day 15), 6 log10; in test [1] (BIT alone 99 ppm, day 15), 7 log10; in test [1] (BIT alone 148 ppm, day 15) it was 7 log10; in test [1] (BIT alone 222 ppm, day 15) it was 8 log10. In addition, the “log10 viable microorganisms (score)” value in test [1] (BIT alone 333 ppm, day 15) stood at 8 log10; in test [1] (BIT alone 500 ppm, day 15) it was 5 log10; in test [2] (BIT alone 18 ppm, day 20), 6.0 log10; in test [2] (BIT alone 26 ppm, day 20), 7.0 log10; in test [2] (BIT alone 40 ppm, day 20) it was 3.0 log10; in test [2] (BIT alone 59 ppm, day 20), 0.0 log10. Moreover, the “log10 viable microorganisms (score)” value turned out to be 0.0 log10 in test [2] (BIT alone 89 ppm, day 20); 0.0 log10 in test [2] (BIT alone 133 ppm, day 20); 1.0 log10 in test [2] (BIT alone 200 ppm, day 20); 1.0 log10 in test [2] (BIT alone 300 ppm, day 20). In addition, in test [2] (setting [6]), the “BIT alone (minimal concentration producing a 4 log10 microbial kill)” value is on record as 59 ppm.
Take `CC(=O)OC1CC(C)OC(C)O1` (stereo not shown) [DMX, 2,6-dimethyl-m-dioxane-4-ol acetate]: the log10 viable microorganisms in test [3] (480 h, 1740 ppm) was 2 log10; in test [3] (DMX alone 102 ppm a.i., day 20), 8 log10; in test [3] (DMX alone 153 ppm a.i., day 20) it was 8 log10; in test [3] (DMX alone 229 ppm a.i., day 20), 7 log10; in test [3] (DMX alone 344 ppm a.i., day 20) it was 7 log10; in test [3] (DMX alone 516 ppm a.i., day 20), 8 log10. Further, the log10 viable microorganisms in test [3] (DMX alone 773 ppm a.i., day 20) turned out to be 8 log10; in test [3] (DMX alone 1160 ppm a.i., day 20), 6 log10; in test [4] (DMX alone 77 ppm), 8.0 log10; in test [4] (DMX alone 115 ppm) it was 8.0 log10; in test [4] (DMX alone 172 ppm), 8.0 log10; in test [4] (DMX alone 257 ppm), 5.0 log10. In addition, the log10 viable microorganisms is 4.0 log10 in test [4] (DMX alone 386 ppm); 3.0 log10 in test [4] (DMX alone 580 ppm); 1.0 log10 in test [4] (DMX alone 870 ppm); 0.0 log10 in test [4] (DMX alone 1305 ppm); 3 log10 in test [1] (360 h, 1160 ppm); 7 log10 in test [1] (DMX alone 102 ppm a.i., day 15). Besides, the log10 viable microorganisms in test [1] (DMX alone 153 ppm a.i., day 15) came to 8 log10; in test [1] (DMX alone 229 ppm a.i., day 15), 7 log10; in test [1] (DMX alone 344 ppm a.i., day 15), 7 log10; in test [1] (DMX alone 516 ppm a.i., day 15), 8 log10; in test [1] (DMX alone 773 ppm a.i., day 15) it was 7 log10; in test [1] (DMX alone 1740 ppm a.i., day 15), 0 log10. Further, the log10 viable microorganisms is reported as 0.0 log10 in test [2] (480 h, 1160 ppm); 6.0 log10 in test [2] (DMX alone 102 ppm a.i., day 20); 6.0 log10 in test [2] (DMX alone 153 ppm a.i., day 20); 6.0 log10 in test [2] (DMX alone 229 ppm a.i., day 20); 6.0 log10 in test [2] (DMX alone 344 ppm a.i., day 20); 6.0 log10 in test [2] (DMX alone 516 ppm a.i., day 20). Besides, the log10 viable microorganisms is recorded as 4.0 log10 in test [2] (DMX alone 773 ppm a.i., day 20) and 0.0 log10 in test [2] (DMX alone 1740 ppm a.i., day 20). Also, the “DMX alone (minimal concentration producing a 4 log10 microbial kill)” value was 1740 ppm in test [3] (setting [6]); 870 in test [4]; 1160 ppm in test [1] (day 15, ppm active, following four bacterial challenges); 1160 ppm in test [2] (setting [6]). For the same compound, in test [5], the “% algal growth Sample A” value was 15%. In addition, in test [5], the “% algal growth Sample B” value worked out at 15%.
Turning to `Cn1ccc(=O)s1` [MIT, 2-Methyl-3-isothiazolinone], the “log10 viable microorganisms (score)” value in test [4] (MIT alone 3 ppm), in test [4] (MIT alone 4 ppm), in test [4] (MIT alone 7 ppm), in test [4] (MIT alone 10 ppm), in test [4] (MIT alone 15 ppm) and in test [4] (MIT alone 22 ppm) was 8.0 log10 in each case. Moreover, the “log10 viable microorganisms (score)” value in test [4] (MIT alone 33 ppm) is 8.0 log10; in test [4] (MIT alone 50 ppm), 3.0 log10. Besides, in test [4], the “MIT Alone (minimal concentration producing a 4 log10 microbial kill)” value is listed as over 50 ppm.
